Test results as given in US12534439B2, “Xanthohumol derivatives and methods for making and using” (Oregon State University, priority 2021, dated 2026).
Like-named read-outs stand apart in the source and are kept apart here.

Experiments:
HFD-fed C57BL/6J mice [1] = experiment: HFD feeding study: body weight, glucose tolerance test, plasma metabolic parameters; format: in vivo; settings: for Final body weight: 11 weeks of HFD ± test compound; for Weight gain over the feeding period versus control HFD-fed mice: XP 30, XN 60 mg/kg body weight/day in HFD; for Glucose tolerance test (GTT) versus control: after 4 weeks of feeding, 6 hours fasting, 1.5 g/kg D-glucose i.p.; for Initial body weight: male mice, HFD ± test compound; for IL-6 / Insulin / MCP1 / PCSK9: plasma
Experimental: Animal Studies. All animal experiments were performed in accordance with institutional and National Health and Medical Research Council guidelines. The experimental protocol was approved by the Institutional Animal Care and Use Committee at Oregon State University and the studies were carried out in accordance with the approved protocol. Nine-week-old wildtype male C57BL/6J mice were obtained from Jackson Laboratory (Bar Harbor, ME, USA). Mice were single-housed in ventilated cages under a 12-12 h light-dark cycle and fed a HFD (Dyets Inc., Bethlehem, PA, USA) containing 60, 20, and 20% total calories from fat, carbohydrate, and protein, respectively. XN (99% purity, Hopsteiner Inc., New York, NY, USA) and XP (99% purity) were mixed into the diet at a concentration of 0.066% for XN and 0.033% for XP to reach respective doses of 60 mg/kg body weight/day and 30 mg/kg body weight/day. Studies included eight HFD-fed mice, eight XP-treated mice, and four XN-treated mice; food intake and body weights were recorded weekly. At week 4, glucose tolerance was tested after 6 hours fasting. Following intraperitoneal bolus injection of 1.5 g/kg of D-glucose, blood glucose levels were measured at 0, 15, 30, 60, and 120 minures using a One Touch UltraMini glucometer (LifeScan Inc., Milpitas, CA, USA). At the end of 11 weeks of feeding, mice were euthanized, and blood, liver, BAT, epididymal WAT, and cortex samples were collected for analyses.
Tris (pH=7.8) per gram of tissue. The homogenates were centrifuged at 10 000 g for 15 minutes at 4° C., and the supernatants were tested for ALT and AST activity using colorimetric assay kits purchased from Cayman Chemical (Ann Arbor, MI, USA). Triglycerides and total cholesterol were analyzed with commercially available kits (Cayman Chemical, Ann Arbor, MI, USA). Plasma glucose at week 11 was measured with a colorimetric assay, and plasma insulin, MCP-1, IL-6, and PCSK9 were analyzed by ELISA kits purchased from Abcam (Cambridge, UK).

HFD-fed C57BL/6J mice [2] = experiment: Metabolic cages: indirect calorimetry, energy expenditure, motor activity; format: in vivo; settings: for All movements (direct locomotion and fine movements) versus control: three dark and two light cycles; for Mean respiratory exchange ratio (RER) versus control: week 6; for Increase of mean energy expenditure (EE): week 6, normalized on body weight, dark and light cycles
Experimental: Measure of Metabolic Activity. Metabolic determinations were performed at week 6, with four mice from each treatment group housed in Promethion metabolic cages (Sable Systems, Las Vegas, NV, USA). The indirect calorimetry system consists of metabolic cages identical to regular cages with bedding, each equipped with food hoppers connected to load cells for food intake monitoring. Prior to data collection, all mice were acclimated to the cages for 8 hours. A standard 12 hours light/dark cycle was maintained throughout the calorimetry studies, and data was collected over three dark cycles and two light cycles. Metabolic measurements such as EE and respiratory exchange […] (calculated from the ratio of CO2 volume produced and O2 volume consumed) were measured. Motor activity and food intake were also recorded. JC-1 Mitochondrial Membrane Potential Assay. C2Cl2 cells were seeded in 96-well plates at 1×10^4 cells/mL. After 24 hours, the culture medium was replaced with fresh medium containing carbonyl cyanide p-(trifluoromethoxy) phenylhydrazone (FCCP) from Sigma-Aldrich (St Louis, MO, USA), XP, XN, or DMSO vehicle. Cells were incubated in the presence of the treatments for 1 h and 5,5′,6,6′-tetrachloro-1,1′,3,3′-tetraethylbenzimidazolylcarbocyanine iodide (JC-1) dye was added to each well following the manufacturer's protocol (Cayman Chemical, Ann Arbor, MI, USA). JC-1 aggregates were detected with excitation and emission wavelengths of 540 and 570 nm. JC-1 monomers were detected with excitation and emission wavelengths of 485 and 535 nm on a BioTek Synergy HT plate reader.

[3] = Quantification of XP and XN in plasma and cortex by UPLC-MS with or without glucuronidase digestion; format: in vivo, mice; settings: for concentration at 11 weeks: C57BL/6J, mouse, without glucuronidase digestion, daily oral XP 30, XN 60 mg/kg body weight, mean ± SEM
Experimental: Quantification of XP and XN. For plasma extractions, ascorbic acid (5 μL, 10% m/m water, Sigma-Aldrich, St Louis, MO, USA) was added to 40 μL of plasma. For tissue extractions, 20 mg of cortex was extracted with 200 μL of 50% methanol in water and 10 μL of ascorbic acid (10% m/m water). Samples were incubated with or without 10 μL of glucuronidase (20 mg/mL, Sigma-Aldrich, St Louis, MO, USA) for 3 hours at 37° C. The samples were extracted with 200 μL of acetonitrile containing 100 ng/mL of [13C3]-XN. The supernatant was transferred to a new tube and vacuum-dried, and the pellet was reconstituted in 100 μL of 50% methanol in water. UPLC-MS was performed using a hybrid triple quadrupole linear ion trap mass spectrometer (4000 QTRAP, AB SCIEX, Toronto, Canada). The elution profile was set as follows: 5% B from 0 to 0.5 min, 5 to 100% B from 0.5 to 3 minutes, 1 minute hold at 100% B, followed by re-equilibration of the HPLC column at 5% B for 2 minutes. Selected reaction monitoring transitions used for quantification were m/z 353.1>119.1 for XN, m/z 379.3>321.3 for XP, and m/z 356.1>120.1 for the [13C3]-XN internal standard.
For plasma extractions, ascorbic acid (5 μL, 10% m/m water, Sigma Aldrich, St Louis, MO, USA) was added to 40 μL of plasma. Samples were incubated with or without 10 μL glucuronidase (20 mg/mL, Sigma Aldrich, St Louis, MO, USA) for 3 hr at 37° C. Samples were extracted with 200 μL of acetonitrile containing 100 ng/mL [^13C3]—XN^1. The supernatant was transferred to a new tube, vacuum-dried and the pellet was reconstituted in 100 μL of 50% methanol in water. UPLC-MS was performed using a hybrid triple quadrupole linear ion trap mass spectrometer (4000 QTRAP, AB SCIEX, Toronto, Canada) as previously reported with some modifications. The elution profile was set as follows: 5% solvent B from 0 to 0.5 minute, 5% to 100% B from 0.5-3 minutes, 1 minute hold at 100% B followed by re-equilibration of the HPLC column at 5% B for 2 minutes. Selected Reaction Monitoring transitions used for quantification were m/z 353.1>119.1 for XN, m/z 379.3>321.3 for XP and m/z 356.1>120.1 for [^13C3]—XN internal standard. XP and XN concentrations were calculated by the external calibration method using calibration curves constructed from pure XP and XN standards.

[4] = cortex, read-out: CORTEX concentration, Non-glucuronidated
[5] = plasma, read-out: PLASMA concentration, Non-glucuronidated

Compound	Plasma concentrations of PCSK9 versus control (HFD-fed C57BL/6J mice [1]; 11 weeks)	Final body weight (HFD-fed C57BL/6J mice [1]; mean ± SEM)	Fasting glucose (HFD-fed C57BL/6J mice [1]; 11 weeks, mean ± SEM)	Plasma cholesterol (HFD-fed C57BL/6J mice [1]; 11 weeks, mean ± SEM)	Weight gain over the feeding period versus control HFD-fed mice (HFD-fed C57BL/6J mice [1])	Glucose tolerance test (GTT) versus control (HFD-fed C57BL/6J mice [1])	Initial body weight (HFD-fed C57BL/6J mice [1]; mean ± SEM)	IL-6 (HFD-fed C57BL/6J mice [1]; 11 weeks, mean ± SEM)	Insulin (HFD-fed C57BL/6J mice [1]; 11 weeks, mean ± SEM)	MCP1 (HFD-fed C57BL/6J mice [1]; 11 weeks, mean ± SEM)	PCSK9 (HFD-fed C57BL/6J mice [1]; 11 weeks, mean ± SEM)	All movements (direct locomotion and fine movements) versus control (HFD-fed C57BL/6J mice [2])	Mean respiratory exchange ratio (RER) versus control (HFD-fed C57BL/6J mice [2])	Increase of mean energy expenditure (EE) (HFD-fed C57BL/6J mice [2]; versus control)	concentration at 11 weeks [3, 4]	concentration at 11 weeks [3, 5]	further results
COc1cc(O)c(CC=C(C)C)c(O)c1-c1cc(-c2ccc(O)cc2)n(C)n1 [XP, 4-(5-(4-hydroxyphenyl)-1-methyl-1H-pyrazol-3-yl)-5-methoxy-2-(3-methylbut-2-en-1-yl)benzene-1,3-diol]	not affected	37.87 ± 1.72 g	128.98 ± 7.18 mg/dL	160.47 ± 4.73 mg/dL	gained significantly less weight	improved glucose tolerance	23.66 ± 0.70 g	5.78 ± 2.04 pg/mL	34.36 ± 3.73 μU/mL	45.00 ± 4.68 pg/mL	217.166 ± 26.88 ng/mL	increased	increased	up to 27%	40.1 ± 2.8 ng/g	43.5 ± 3.54 ng/mL	IL-6 plasma level versus control (HFD-fed C57BL/6J mice [1]; 11 weeks): not significantly different; MCP-1/CCL2 plasma levels versus control (HFD-fed C57BL/6J mice [1]; 11 weeks): not decreased; Triglycerides (TG) and total cholesterol concentrations in plasma versus control (HFD-fed C57BL/6J mice [1]; 11 weeks): no changes; Plasma TG (HFD-fed C57BL/6J mice [1]; 11 weeks, mean ± SEM): 81.81 ± 4.33 mg/dL; Decrease of HOMA-IR (insulin resistance score) (HFD-fed C57BL/6J mice [1]; after 11 weeks of feeding, versus control): 77.9%; Fasting glucose a (HFD-fed C57BL/6J mice [1]; measured at 4 weeks, mean ± SEM): 143.62 ± 7.54 mg/dL; Percent ambulatory time versus control (HFD-fed C57BL/6J mice [2]; mouse, in vivo): increased; Increase of locomotor movement (direct locomotion) (HFD-fed C57BL/6J mice [2]; versus control): 75-135%; Increase of mean energy expenditure (EE) (HFD-fed C57BL/6J mice [2]; versus control, listed as 4-(5-(4-hydroxyphenyl)-1-methyl-1h-pyrazol-3-yl)-5-methoxy-2-(3-methylbut-2-en-1)): 20-27%; Phase 1 metabolism ([3]; plasma of treated mice): resistant to phase 1 metabolism; Metabolites detected in plasma ([3]; plasma of treated mice, mass spectrometric analysis): XP-glucuronide was the only metabolite
COc1cc(O)c(CC=C(C)C)c(O)c1C(=O)/C=C/c1ccc(O)cc1 [XN, xanthohumol]	not affected	44.25 ± 1.97 g	142.67 ± 6.29 mg/dL	170.88 ± 6.76 mg/dL	no change in weight	no effect on glucose clearance	26.37 ± 0.22 g	5.03 ± 3.3 pg/mL	71.17 ± 34.38 μU/mL	57.34 ± 15.74 pg/mL	215 ± 35.12 ng/mL	increased	increased	4-8%	59.7 ± 16.8 ng/g	13.2 ± 3.07 ng/mL	Plasma TGs versus control (HFD-fed C57BL/6J mice [1]; 11 weeks): increase; HOMA-IR (HFD-fed C57BL/6J mice [1]; 11 weeks, mean ± SEM): 26.76 ± 13.47; Locomotor movement increased versus control (HFD-fed C57BL/6J mice [2]; p=0.06): not
